Source: the supplement of paper PMC10307832

How the values were obtained:
Assay in all cases: relative viability (nuclei count vs DMSO), 5 days (fraction); higher = more cells survive
[1] = compound: Cc1ccc2nc(NCCN)c3ncc(C)n3c2c1 + C[C@]1(O)C[C@@H](c2nc(-c3ccc4ccc(-c5ccccc5)nc4c3)c3c(N)nccn32)C1 [Linsitinib] (partner 1 µM)
Summary of the method: (§1)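 One day after seeding in 1536-well plates, lung cancer cell lines were dosed by pin tool. Dosing was either single-drug or a fixed anchor-drug dose plus five library-drug doses (not always all listed) in √10 steps. After 5 days, nuclei were stained in one fix-and-stain step and counted on 4× images, and relative viability is the nuclei count of treated wells over that of vehicle wells, given as the median of duplicate plates.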

[2] = compound: Cc1ccc2nc(NCCN)c3ncc(C)n3c2c1 + Cc1nc(Nc2ncc(C(=O)Nc3c(C)cccc3Cl)s2)cc(N2CCN(CCO)CC2)n1 [Dasatinib] (partner 0.075 µM)
Summary of the method: as §1

[3] = compound: Cc1ccc2nc(NCCN)c3ncc(C)n3c2c1 + Nc1nc2[nH]cc(CCc3ccc(C(=O)N[C@@H](CCC(=O)O)C(=O)O)cc3)c2c(=O)[nH]1 [Pemetrexed] (partner 0.2 µM)
Summary of the method: as §1

Salubrinal + Lapatinib = compound: O=C(/C=C/c1ccccc1)NC(NC(=S)Nc1cccc2cccnc12)C(Cl)(Cl)Cl [Salubrinal] + CS(=O)(=O)CCNCc1ccc(-c2ccc3ncnc(Nc4ccc(OCc5cccc(F)c5)c(Cl)c4)c3c2)o1 [Lapatinib] (partner 2 µM)
Summary of the method: as §1

| Cell Line | relative viability ([1]; first compound 0.04 µM) | relative viability ([1]; first compound 0.1265 µM) | relative viability ([1]; first compound 0.4 µM) | relative viability ([1]; first compound 1.265 µM) | relative viability ([1]; first compound 4 µM) | relative viability ([2]; first compound 0.04 µM) | relative viability ([2]; first compound 0.1265 µM) | relative viability ([2]; first compound 0.4 µM) | relative viability ([2]; first compound 1.265 µM) | relative viability ([2]; first compound 4 µM) | relative viability ([3]; first compound 0.04 µM) | relative viability ([3]; first compound 0.1265 µM) | relative viability ([3]; first compound 0.4 µM) | relative viability ([3]; first compound 1.265 µM) | relative viability ([3]; first compound 4 µM) | relative viability (Salubrinal + Lapatinib; first compound 0.08 µM) | relative viability (Salubrinal + Lapatinib; first compound 0.253 µM) | relative viability (Salubrinal + Lapatinib; first compound 0.8 µM) | relative viability (Salubrinal + Lapatinib; first compound 2.53 µM) | relative viability (Salubrinal + Lapatinib; first compound 8 µM) |
| --- | --- | --- | --- | --- | --- | --- | --- | --- | --- | --- | --- | --- | --- | --- | --- | --- | --- | --- | --- | --- |
| NCI-H3122 | 1 | 1.03 | 0.999 | 0.982 | 1.04 | 0.78 | 0.901 | 0.707 | 1.02 | 0.869 | 0.199 | 0.192 | 0.192 | 0.218 | 0.2 | 1.12 | 1.02 | 1.04 | 1.1 | 0.959 |
| PC-3 [JPC-3] | 0.962 | 0.941 | 0.924 | 0.948 | 0.947 | 1.11 | 0.995 | 0.857 | 1.01 | 0.932 | 1.21 | 1.03 | 1.1 | 0.987 | 1.09 | 0.436 | 0.423 | 0.459 | 0.484 | 0.472 |
| PC-14 | 0.962 | 0.957 | 0.947 | 0.964 | 0.9 | 0.285 | 0.276 | 0.299 | 0.206 | 0.0944 | 0.135 | 0.14 | 0.157 | 0.15 | 0.151 | 0.412 | 0.347 | 0.331 | 0.29 | 0.382 |
| RERF-LC-KJ | 0.84 | 0.895 | 0.863 | 0.795 | 0.73 | 0.873 | 0.698 | 0.757 | 0.748 | 0.503 | 0.489 | 0.474 | 0.435 | 0.485 | 0.518 | 0.871 | 0.75 | 0.837 | 0.828 | 0.822 |
| SK-LU-1 | 1.18 | 1.09 | 1.12 | 1.16 | 1.04 | 0.162 | 0.202 | 0.181 | 0.166 | 0.167 | 0.979 | 0.903 | 0.955 | 0.984 | 0.981 | 0.972 | 0.874 | 0.899 | 0.926 | 0.703 |
| SK-MES-1 | 1.08 | 0.993 | 1.09 | 1.05 | 1.03 | 0.489 | 0.339 | 0.392 | 0.35 | 0.305 | 1.04 | 0.903 | 0.9 | 1.05 | 0.92 | 0.488 | 0.405 | 0.499 | 0.42 | 0.437 |
| SW 1573 | 0.928 | 0.824 | 0.883 | 0.985 | 0.821 | 0.576 | 0.534 | 0.468 | 0.48 | 0.244 | 1.01 | 0.828 | 0.912 | 0.992 | 0.611 | 1.02 | 1.14 | 1.09 | 1.11 | 1.16 |
| UMC-11 | 1.03 | 0.94 | 1 | 1.12 | 0.956 | 0.475 | 0.477 | 0.431 | 0.407 | 0.387 | 0.858 | 0.744 | 0.808 | 0.734 | 0.674 | 0.931 | 0.918 | 1.48 | 1.11 | 1.16 |
